The record followed here is patent publication US9884084B2, “Bone loss preventing and bone regeneration or bone formation promoting pharmaceutical composition comprising muramyl dipeptide” (SNU R&DB FOUNDATION, priority 2012, dated 2018).

Test [1] has as its system Runx2. The experiment in a line: Immunoblot of Runx2 protein in MC4 cells. The class given is cell-based. The note with it: 24 hrs, β-actin loading control, FIG. 2 lower part. As to the method: Also to examine the effect at the protein level, whole cell extract was prepared from the cells treated with MDP for 24 hrs as described above, and 40 μg of extract was used for SDS-PAGE electrophoresis. Then the gel was transferred to a PVDF membrane and immunoblot was performed using an antibody specific to Runx2 (Abcam, USA). […] The β-actin was used as a loading control.
A general note: In western blotting, separated proteins are transferred to a membrane and probed.

For test [2], the system named is osteoblast. The experiment in a line: OPG and RANKL regulation in the osteoblast (data not shown). The format is cell-based.
In test [3] the test system is Runx2. Briefly: 6XOSE/Luc luciferase reporter assay of Runx2 transcriptional activity in MC4 cells. The format is cell-based. The method, then:
Further to examine whether the increased expression of Runx2, which is a transcription factor, affects the expression of other genes regulated by Runx2, the following experiments were performed. For this, MC4 cells were seeded onto each well of a 96 well plate at the concentration of 20,000 cells/well and the cells were transfected with a plasmid 6XOSE/Luc reporter vector (Journal of Biological Chemistry. 285: 3568-3574 (2010)) which expresses luciferase gene under the control of osteocalcin using Lipofectamin® (Life technologies, Inc) according to the manufacturer's instruction. The promoter in the plasmid contains […] to each of which Runx2 binds. By binding of Runx2 to the motif, the expression of luciferase increases. After 16 hrs after the transfection, MDP at the concentration as indicated in FIG. 3 was added to the cells. After 24 hrs, the cells were lysed and the luciferase activity was measured using Luciferase detection kit (Promega, USA) according to the manufacturer's instruction to quantify the mRNA level of osteocalcin gene, which is affected by Runx2.
In addition to MDP as used in Example 2-1, as a derivative thereof, M-TriLYS (MurNAc-Ala-D-isoGln-Lys, N-acetylmuramyl-L-alanine-D-isoglutamine-lysine) and 6-O-stearoyl-N-acetylmuramyl-L-alanyl-D-isoglutamine (L18-MDP) were used to examine the effect of the derivatives on the expression of Runx2 at transcription level. M-TriLYS is a muropeptide obtainable from peptidoglycans of lactobacillus or salivarius and contains in its structure muramyl dipeptide. L18-MDP is a MDP derivative containing C18 fatty acid.

Test [4] concerns Runx2. The experiment in a line: RT-PCR of Runx2 mRNA in MC4 cells. The class given is cell-based. The note with it: 6 hrs, normalized relative to β-actin, FIG. 2 upper part. The method, then: Then, total mRNA was extracted from the cells and incubated with random primer at 70° C. for 5 min. After that reverse transcriptase, buffer for RT and dNTPs were added to the reaction mixture and incubated at 42° C. for 1 hr to synthesize cDNA, which was then used as a template for PCR to amplify Runx2 using specific primers as described in Table 1 and using the following condition: cDNA was initially denatured at 94° C. for 5 min followed by 25 cycles at 95° C. for 40 s, 59° C. for 40 s, and 72° C. for 40 s and final extension for 5 min at 72° C. […] The results were normalized relative to β-actin data.

Test [5] has as its system WT C57BL/6 (B6) mice. Briefly: Histological observation (H&E) of mouse femur. The format is in vivo. The note with it: 1.25 mg/kg i.p. twice, vs physiological saline control; FIG. 6. The method, then:
(§1) To each mouse, 1.25 mg/kg of MDP prepared as described in Example 1 was administered twice with a 4 day interval by intraperitoneal injection. Physiological saline was used as a control. The second injection was given 4 days after the first injection and after 3 days the mice were sacrificed and used for bone volume analysis.
The femur used for the analysis of bone volume in Example 3-3 was used for a histological observation. For this, the femur was demineralized in 10% EDTA for 7 days and washed with running water for 12 hrs in a tissue capsule. After that, the femur was treated with alcohol and xylene and embedded in paraffin, from which sections having a thickness of 4 μm were prepared. The sections were then placed on a slide glass and deparaffinized at 65° C. for 30 min and treated with Hematoxylin and Eosin according to the conventional method.
The slides were then examined with a light microscope to observe the bone formation.

The test system of test [6] is osteoblast cell line MC4 cells (MC3T3-E1 Subclone 4). Briefly: Osteoblast differentiation by alkaline phosphatase (ALP) staining, MC4 cells. The class given is cell-based. The note with it: 0.1, 1 and 10 μg/ml MDP, 5 days, differentiation medium; FIG. 1. The method, then: N-acetylmuramyl-L-Alanyl-D-Isoglutamine commercially available from Invivogen Inc. was dissolved in endotoxin free purified water to make a solution of 5 mg/ml. To assess the effect of muramyl dipeptide on the differentiation of osteoblast, osteoblast cell line MC4 cells (ATCC CRL-2593:MC3T3-E1 Subclone 4) were incubated in an ascorbic acid free-αMEM medium containing 10% fetal bovine serum, 50 unit/ml penicillin, 50 μg/ml streptomycin at 37° C. under 100% humidity and 5% CO2 atmosphere. The medium was changed every 3 days.
Then MC4 cells were seeded onto each well of a 48 well plate at the concentration of 20,000 cells/well and then after 16 hrs, each well was treated for 5 days with 400 μl of 0, 0.1, 1 and 10 μg/ml of MDP as prepared above in the differentiation medium (50 μg/ml ascorbic acid and 10 mM beta-glycerophosphate containing αMEM), during which half of the medium was changed twice with the differentiation medium. The effect on the differentiation was analyzed using alkaline phosphatase (ALP) staining. Results are shown in FIG. 1, in which the effect on the differentiation was determined by the number of cells showing red-purple color as well as the intensity of the color. […] Each experiment was repeated at least 3 times.

Test [7] relates to mouse model treated with GST-RANKL. Briefly: GST-RANKL induced bone loss mouse model, microCT bone volume. The format is in vivo. The note with it: pretreatment 1.25 mg/kg i.p. twice, then GST-RANKL 1 mg/kg i.p. three times; vs controls not pretreated; FIG. 8. As to the method:
Muramyl dipeptide was administered to a mouse by an intraperitoneal injection two times with four day interval between the administration at the concentration of 1.25 mg/kg. After 3 days of the administration, GST-RANKL recombinant protein was intraperitoneally administered at the concentration of 1 mg/kg three times with a 24 hr interval between the administrations, The bone volume was analyzed at 1 day after the last administrated with GST-RANKL. The recombinant protein was prepared using a RANKL expression vector, pGEX-GST-RANKL (J. Clin Invest. 106:1481-1488 (2000)), which was expressed in E. coli and the protein was purified using a sepharose gel attached with glutathione (glutathione-sepharose gels, Sigma-Aldrich). The purified protein was then treated with Detoxi-gel endotoxin removing gel (Thermo Scientific, USA) to remove endotoxin and used for the experiment. Seven days after the administration, mice were sacrificed and the bone volume was measured using a microCT. As controls, mice treated only with physiological saline, GST-RANKL or physiological saline and GST-RANKL in a consecutive order were used.

Test [8] concerns WT C57BL/6 (B6) mice. The experiment in a line: Bone volume of mouse femur by microCT after MDP administration. The class given is in vivo. The method, then:
Six-week-old WT C57BL/6 (B6) mice were purchased from Orient Company Ltd (Seoul, Korea). The animals were maintained at a controlled temperature (21±1° C.) and humidity (55±1%) with a 12/12-h light-dark cycle without any restriction of food and water. All animal experiments were performed following the protocol approved by the Institutional Animal Care and Use Committee of CRISNUH.
as §1
A right femur was removed from the sacrificed mouse and stripped of the muscle. The excised femur was then fixed in 10% of neutral formalin for one day at the least, which was then analyzed for bone volume using microCT. […] In FIG. 5, BV/TV=Bone volume/Tissue volume=% bone volume.

Test [9] relates to RANKL-primed osteoclast precursors. Briefly: Osteoclast differentiation from RANKL-primed osteoclast precursors, TRAP staining. The note with it: 20 ng/ml M-CSF, 3 days; FIG. 7 right graph.
Description: Bone marrow cells (BMs) were isolated from the long bones of mouse and were cultured in α-MEM supplemented with 10% FBS, 100 U/ml penicillin and 100 μg/ml streptomycin, and 2 ng/ml M-CSF for 1 day. Suspended cells were differentiated into BMMs with 20 ng/ml M-CSF for 3 days. […] To make RANKL-primed osteoclast precursors, the BMMs were stimulated with 20 ng/ml mouse RANKL for 48 h. The BMMs were incubated with 20 ng/ml M-CSF in the presence or absence of MDP for additional 3 days.
The differentiation was determined by tartrate resistant acid phosphatase (TRAP) staining using Leukocyte acid phosphate-staining kit (Sigma-Aldrich Chemical, USA) according to the manufacturer's instruction. After the staining, TRAP-positive multinucleated cells with at least 3 nuclei were enumerated as mature osteoclasts with an inverted phase-contrast microscope and results are shown in FIG. 7.
The mark [10] stands for this setting: 1.25 mg/kg i.p. twice, vs physiological saline control, FIG. 5.

With “N-acetylmuramyl-L-Alanyl-D-Isoglutamine [MDP]”, in test [1], the “expression of Runx2 protein” value is “increased the expression of Runx2 protein”. For the same substance, in test [2], the “Osteoprotegerin (OPG) regulation in the osteoblast” value is reported as “up-regulation” and the “RANKL regulation in the osteoblast” value is listed as “down-regulation”. Further, the “indirect effect on osteoclast differentiation” value in test [2] (through OPG and RANKL in the osteoblast) was “indirectly alleviated osteoclast differentiation”. The “expression of Runx2 at the transcriptional level (reporter)” value (from here on “expression of Runx2 … (reporter)”) in test [3] (FIG. 3B) is given as “increased the expression of Runx2 at the transcriptional level”. Further, the “luciferase activity (transcription of osteocalcin, affected by Runx2)” value in [3] (MC4 cells, 24 hrs after addition, FIG. 3A) is “increased the transcription of osteocalcin”. The “mRNA expression of Runx2” value in test [4] is “increased after MDP treatment in a concentration dependent manner”. In addition, in [5], the “spongy bone in femur sections (H&E)” value is “more spongy bone was observed”. Moreover, the “differentiation of MC4 (ALP staining)” value in test [6] is “increased in a concentration dependent manner”. The “bone loss due to GST-RANKL (bone volume, microCT)” value in test [7] is on record as “reduced”. Besides, the “bone volume (microCT 3D image)” value in test [8] (1.25 mg/kg i.p. twice with 4 day interval, right femur, vs physiological saline, FIG. 4) is on record as “increase in bone volume”. In test [8] (setting [10]), the “Trabecular bone volume (BV/TV)” value is “increased statistically significantly”, the “Trabecular number (Tb.N)” value is “increased statistically significantly” and the “Trabecular thickness (Tb.Th)” value is recorded as “increased statistically significantly”. The “osteoclast differentiation from RANKL-primed osteoclast precursors” value in test [9] was “did not affect”.

As for “6-O-stearoyl-N-acetylmuramyl-L-alanyl-D-isoglutamine [L18-MDP]”, the “expression of Runx2 … (reporter)” value in test [3] (FIG. 3B) was “increased the expression of Runx2 at the transcriptional level”. In addition, the “activity on Runx2 compared with MDP” value in test [3] (higher than that of MDP, FIG. 3B) worked out at 10 times.

Take “N-acetylmuramyl-L-alanine-D-isoglutamine-lysine [MTnLYS]”: the “expression of Runx2 … (reporter)” value in test [3] (FIG. 3B) is “increased the expression of Runx2 at the transcriptional level”.
